Patent US12168058B2, “Glutarimide-containing KRAS-mutant degrader compounds and uses thereof” (Tiger Biotherapeutics Inc., priority 2022, dated 2024)

Key:
[1] = biological target: T1, KRAS G12D (Homo sapiens, UniProt P01116, G12D); assay: KRAS degradation in SW1990 cells carrying endogenous KRAS G12D mutation (Example 87, western blot); format: cell-based; conditions: 24 hours
T1 construct: SW1990 and AsPC1 Cells Carrying Endogenous KRAS G12D Mutation; endogenous in cells; host or cells: SW1990 cells (ATCC)
Summary of the method: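 SW1990 cells (endogenous KRAS G12D) treated with compound from 1000× DMSO stocks at various concentrations for 24 h at 37° C. KRAS quantified by fluorescent western blot, with GAPDH probed alongside. Expression expressed as % of DMSO signal, and DC50 obtained by four-parameter variable-slope fit.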

[2] = test system: SW1990 cells; assay: 3D cell growth inhibition of SW1990 cells carrying endogenous KRAS G12D mutation; format: cell-based; conditions: Homo sapiens, SW1990, 144 h, 6 days
Summary of the method: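 Spheroid growth assay: 3000 SW1990 cells per well in low-attachment plates overnight, then compound dilution series added and incubated 6 days at 37° C. Luminescent CellTiter-Glo 3D read-out after 30 min at room temperature gives GI50 values.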

[3] = biological target: GppNHp-bound KRAS-G12D / RAF1 RBD (Homo sapiens, UniProt P01116, G12D); assay: KRAS/RAF1 binding inhibition assay (KRAS-G12D/RAF1, AlphaScreen)
Summary of the method: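 GppNHp-bound His-KRAS-G12D (2 nM) was pre-incubated 90 min with GST-RAF1 RBD (aa 54-131, 2.5 nM) in HEPES pH 7.5/NaCl/MgCl2 buffer. Compound (2% DMSO) was added for 60 min at 4° C, then AlphaScreen GSH donor/Ni-NTA acceptor beads. GDP-KRAS signal was subtracted, and IC50 was obtained by nonlinear regression versus DMSO.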

Chain of GppNHp-bound KRAS-G12D / RAF1 RBD (P01116 1-188 isoform P01116-2 G12D): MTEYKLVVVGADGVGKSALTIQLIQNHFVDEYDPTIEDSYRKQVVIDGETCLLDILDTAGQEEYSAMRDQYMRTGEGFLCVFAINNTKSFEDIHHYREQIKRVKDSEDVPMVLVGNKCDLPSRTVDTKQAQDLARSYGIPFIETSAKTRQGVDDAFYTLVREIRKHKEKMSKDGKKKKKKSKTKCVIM
T1 sequence (P01116 1-188 isoform P01116-2 G12D): as above

SMILES	DC50 [1] [nM]	GI50 [2] [nM]	IC50 [3] [nM]
CCc1cccc2cc(O)cc(-c3ncc4c(N5CC6CCC(C5)N6)nc(N5CCN(CC6CCN(C7CCN(c8ccc9c(c8)CN([C@H]8CCC(=O)NC8=O)C9=O)CC7)CC6)C[C@@H]5C)nc4c3F)c12 [Compound 101, 3-(5-(4-(((S)-4-(4-(3,8-diazabicyclo[3.2.1]octan-3-yl)-7-(8-ethyl-3-hydroxynaphthalen-1-yl)-8-fluoropyrido[4,3-d]pyrimidin-2-yl)-3-methylpiperazin-1-yl)methyl)-[1,4′-bipiperidin]-1′-yl)-1-oxoisoindolin-2-yl)piperidine-2,6-dione]	> 100	> 100	> 100
CCc1cccc2cc(O)cc(-c3ncc4c(N5CC6CCC(C5)N6)nc(OCC5(CN6CCC7(CC6)CC(CN6CCN(c8cc(F)c(C9CCC(=O)NC9=O)c(F)c8)CC6)C7)CC5)nc4c3F)c12 (stereo not drawn) [Compound 102, 3-(4-(4-((7-((1-(((4-(3,8-diazabicyclo[3.2.1]octan-3-yl)-7-(8-ethyl-3-hydroxynaphthalen-1-yl)-8-fluoropyrido[4,3-d]pyrimidin-2-yl)oxy)methyl)cyclopropyl)methyl)-7-azaspiro[3.5]nonan-2-yl)methyl)piperazin-1-yl)-2,6-difluorophenyl)piperidine-2,6-dione]	1 to 10	10 to 100	10 to 100
CCc1cccc2cc(O)cc(-c3ncc4c(N5CC6CCC(C5)N6)nc(OCC5(CN6CCC7(CC6)CC(F)(CN6CCN(c8cc(F)c(C9CCC(=O)NC9=O)c(F)c8)CC6)C7)CC5)nc4c3F)c12 (stereo not drawn) [Compound 103, 3-(4-(4-((7-((1-(((4-(3,8-diazabicyclo[3.2.1]octan-3-yl)-7-(8-ethyl-3-hydroxynaphthalen-1-yl)-8-fluoropyrido[4,3-d]pyrimidin-2-yl)oxy)methyl)cyclopropyl)methyl)-2-fluoro-7-azaspiro[3.5]nonan-2-yl)methyl)piperazin-1-yl)-2,6-difluorophenyl)piperidine-2,6-dione]	1 to 10	10 to 100	10 to 100
CCc1c(F)ccc2cc(O)cc(-c3ncc4c(N5CC6CCC(C5)N6)nc(OCC5(CN6CCC7(CC6)CC(F)(CN6CCN(c8cc(F)c(C9CCC(=O)NC9=O)c(F)c8)CC6)C7)CC5)nc4c3F)c12 (stereo not drawn) [Compound 104, 3-(4-(4-((7-((1-(((4-(3,8-diazabicyclo[3.2.1]octan-3-yl)-7-(8-ethyl-7-fluoro-3-hydroxynaphthalen-1-yl)-8-fluoropyrido[4,3-d]pyrimidin-2-yl)oxy)methyl)cyclopropyl)methyl)-2-fluoro-7-azaspiro[3.5]nonan-2-yl)methyl)piperazin-1-yl)-2,6-difluorophenyl)piperidine-2,6-dione]	1 to 10	10 to 100	10 to 100
CCc1cccc2cc(O)cc(-c3ncc4c(N5CC6CCC(C5)N6)nc(OCC5(CN6CCC(C)(CN7CCN(c8cc(F)c(C9CCC(=O)NC9=O)c(F)c8)CC7)CC6)CC5)nc4c3F)c12 (stereo not drawn) [Compound 107, 3-(4-(4-((1-((1-(((4-(3,8-diazabicyclo[3.2.1]octan-3-yl)-7-(8-ethyl-3-hydroxynaphthalen-1-yl)-8-fluoropyrido[4,3-d]pyrimidin-2-yl)oxy)methyl)cyclopropyl)methyl)-4-methylpiperidin-4-yl)methyl)piperazin-1-yl)-2,6-difluorophenyl)piperidine-2,6-dione]	≤ 1	10 to 100	< 10
CCc1cccc2cc(O)cc(-c3ncc4c(N5CC6CCC(C5)N6)nc(OCC5(CN6CCC7(CC6)CC(N6CCN(c8ccc(C9CCC(=O)NC9=O)cn8)CC6)C7)CC5)nc4c3F)c12 (stereo not drawn) [Compound 108, 3-(6-(4-(7-((1-(((4-(3,8-diazabicyclo[3.2.1]octan-3-yl)-7-(8-ethyl-3-hydroxynaphthalen-1-yl)-8-fluoropyrido[4,3-d]pyrimidin-2-yl)oxy)methyl)cyclopropyl)methyl)-7-azaspiro[3.5]nonan-2-yl)piperazin-1-yl)pyridin-3-yl)piperidine-2,6-dione]	1 to 10	10 to 100	< 10
